The test deals with T1, CYP106A2 (Priestia megaterium, UniProt Q06069).
T1 sequence (Q06069 1-410): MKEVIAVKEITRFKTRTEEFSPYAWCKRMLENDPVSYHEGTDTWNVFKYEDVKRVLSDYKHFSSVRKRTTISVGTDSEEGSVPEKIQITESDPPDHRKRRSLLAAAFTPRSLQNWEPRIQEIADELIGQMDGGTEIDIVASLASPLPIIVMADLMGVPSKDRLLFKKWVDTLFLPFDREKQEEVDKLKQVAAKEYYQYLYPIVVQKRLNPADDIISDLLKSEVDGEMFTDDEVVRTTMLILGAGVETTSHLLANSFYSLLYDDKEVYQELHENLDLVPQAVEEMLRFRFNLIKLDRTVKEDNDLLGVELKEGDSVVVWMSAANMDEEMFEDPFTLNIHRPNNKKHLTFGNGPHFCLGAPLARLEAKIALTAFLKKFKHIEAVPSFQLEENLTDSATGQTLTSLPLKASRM
The experiment in a line: UV-vis difference spectroscopy titration (type I high-spin shift, tandem cuvettes). Type of test: binding.

The Kd is the concentration at which binding is half-saturated. Regarding `C[C@]12CCC(=O)C=C1CC[C@@H]1[C@@H]2CC[C@]2(C)C(=O)CC[C@@H]12` [androstenedione], the Kd was 92 ± 11 µM.

These data come from article PMC4080778, “Steroid conversion with CYP106A2 – production of pharmaceutically interesting DHEA metabolites” (Microbial Cell Factories, 2014).
